Eleven molecules from PubChem BioAssay (NCI) can be followed below.

Test systems include DU-145 prostate; HCT-116 colon; HS 578T breast; MDA-MB-231 breast; NCI-H23 lung; OVCAR-5 ovarian; SF-295 CNS; T-47D breast.
Common to all, as to assay: NCI tumour cell line growth inhibition, 48 h

SMILES strings stand for the structures.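 Dose response: 5 concentrations. Exposure: 48 h. Format: 96-well plates. Endpoint: linear interpolation; highest concentration if not reached. The concentration for 50% growth inhibition is given as GI50. TGI denotes the concentration required for complete inhibition of growth.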

On to `O=C(N/N=C/c1cc(Cl)ccc1O)c1ccccc1Nc1ccnc(C(F)(F)F)c1`, for which the GI50 in the experiment with DU-145 prostate was 0.362 µM; in the experiment on HCT-116 colon, 0.27 µM; in the experiment with HS 578T breast, 1.15 µM; in the experiment with MDA-MB-231 breast, 0.54 µM; with NCI-H23 lung it was 1.31 µM; in the experiment with OVCAR-5 ovarian, 1.67 µM. In addition, the GI50 in the experiment on SF-295 CNS was 0.613 µM; with T-47D breast, 0.633 µM. For the same molecule, the TGI came to 18.8 µM in the experiment with DU-145 prostate; 13.1 µM in the experiment with HCT-116 colon; 10.5 µM with HS 578T breast; 21.1 µM in the experiment with MDA-MB-231 breast; 16.3 µM in the experiment on NCI-H23 lung; 25.6 µM in the experiment on OVCAR-5 ovarian. The TGI was 13.2 µM with SF-295 CNS and 9.62 µM with T-47D breast.
For `C=C1C(=O)O[C@H]2[C@H]1CC/C(COC(=O)CCCCCCCC(=O)OC/C1=C/CC[C@@]3(C)O[C@H]3[C@H]3OC(=O)C(=C)[C@@H]3CC1)=C\CC[C@@]1(C)O[C@@H]21`, the GI50 in the experiment on DU-145 prostate is 2.9 µM; with HS 578T breast it was 3.84 µM; with MDA-MB-231 breast it was 1.98 µM; in the experiment with NCI-H23 lung, 2.26 µM; in the experiment with OVCAR-5 ovarian, 2.48 µM; with SF-295 CNS, 3.6 µM. Moreover, in the experiment on T-47D breast, the GI50 is 2.3 µM. Moreover, the TGI with DU-145 prostate was determined as 10.8 µM; with HS 578T breast, 27.3 µM; with MDA-MB-231 breast it was 4.61 µM; in the experiment with NCI-H23 lung, 6.52 µM; in the experiment with OVCAR-5 ovarian, 7.01 µM; in the experiment on SF-295 CNS, 15.2 µM. The TGI with T-47D breast amounted to 8.26 µM.
In the case of `COC(=O)C12C34C=CC5(CCC6(C=CC1(CC3)O6)C52C(=O)OC)O4` (stereo unspecified), the TGI in the experiment with HCT-116 colon, in the experiment on NCI-H23 lung, in the experiment on OVCAR-5 ovarian and with SF-295 CNS was above 100 µM each time.
As to `Cc1cc(Cl)nc(N(CCCNc2ccnc3cc(Cl)ccc23)Cc2cccs2)n1`, the GI50 with DU-145 prostate was 2.23 µM; in the experiment on HCT-116 colon, 0.437 µM; in the experiment on HS 578T breast it was 2.21 µM; in the experiment with MDA-MB-231 breast, 1.24 µM; in the experiment with NCI-H23 lung, 1.28 µM; in the experiment on OVCAR-5 ovarian, 1.39 µM. The GI50 with T-47D breast is 1.82 µM. The TGI in the experiment with DU-145 prostate was found to be 14.7 µM; in the experiment on HCT-116 colon, 2.64 µM; in the experiment with HS 578T breast, 12.9 µM; in the experiment on MDA-MB-231 breast, 3.4 µM; with NCI-H23 lung it was 5.8 µM; with OVCAR-5 ovarian, 13.7 µM. In the experiment on T-47D breast, this molecule displayed a TGI of 8.02 µM.
Regarding `COc1ccc2c(CCCc3ccc(Cl)cc3Cl)c3[n+](cc2c1OC)CCc1cc2c(cc1-3)OCO2`, the GI50 in the experiment with DU-145 prostate is 0.639 µM; with NCI-H23 lung, 0.327 µM; in the experiment on OVCAR-5 ovarian it was 1.13 µM; in the experiment on T-47D breast, 0.325 µM. Besides, the TGI with DU-145 prostate came to 1.96 µM; in the experiment with NCI-H23 lung, 1.42 µM; in the experiment with OVCAR-5 ovarian, 2.62 µM; in the experiment with T-47D breast, 1.84 µM.
For the molecule `Cc1cc(-c2nc3n(c2/C=N/N=C(N)N)CCS3)c(C)s1`, the GI50 with DU-145 prostate is 18.2 µM; in the experiment on HCT-116 colon, 15.4 µM; in the experiment on MDA-MB-231 breast it was 13.4 µM; in the experiment with NCI-H23 lung it was 15 µM; in the experiment on OVCAR-5 ovarian it was 14.9 µM; with SF-295 CNS it was 15.6 µM. Besides, the GI50 in the experiment with T-47D breast is 17.6 µM. For the same molecule, the TGI with DU-145 prostate was 34.7 µM; with HCT-116 colon, 28.7 µM; in the experiment on MDA-MB-231 breast it was 27.1 µM; in the experiment on NCI-H23 lung, 28.2 µM; in the experiment with OVCAR-5 ovarian it was 29.8 µM; with SF-295 CNS, 29 µM. This molecule showed a TGI in the experiment with T-47D breast of 32.5 µM.
For the molecule `COc1cc2c3c(n(CCN4CCOCC4)c(=O)c2cc1OC)-c1ccccc1C3=O`, the GI50 in the experiment on DU-145 prostate was above 100 µM; with HCT-116 colon, 59.7 µM; with HS 578T breast, above 100 µM; in the experiment on MDA-MB-231 breast, above 100 µM; in the experiment on OVCAR-5 ovarian it was above 100 µM; in the experiment on SF-295 CNS it was 34.6 µM. Further, the GI50 in the experiment on T-47D breast is 27.4 µM. Also, the TGI with DU-145 prostate, in the experiment with HCT-116 colon, in the experiment with HS 578T breast, with MDA-MB-231 breast, in the experiment on OVCAR-5 ovarian and in the experiment on SF-295 CNS was above 100 µM in each case. The same molecule had a TGI with T-47D breast of 88 µM.
On to `CC(=O)[CH-]C(=O)c1ccccc1.CC(=O)[CH-]C(=O)c1ccccc1.CC[C@H](/C=C/C(C)[C@H]1CCC2[C@@H]3CC=C4C[C@@H]([O-])CC[C@]4(C)C3CC[C@@]21C)C(C)C.CC[C@H](/C=C/C(C)[C@H]1CCC2[C@@H]3CC=C4C[C@@H]([O-])CC[C@]4(C)C3CC[C@@]21C)C(C)C.Cl.[Ti+4]` (stereo partly specified), for which the GI50 with HCT-116 colon, in the experiment on NCI-H23 lung, in the experiment on OVCAR-5 ovarian and in the experiment on SF-295 CNS was above 25 µM each time. Besides, the TGI in the experiment with HCT-116 colon, with NCI-H23 lung, with OVCAR-5 ovarian and with SF-295 CNS was above 25 µM throughout.
For `CCn1cc(C(=O)N/N=C/c2cccs2)c(=O)c2cc(F)c(N3CCNC(C)C3)c(F)c21` (stereo unspecified), the GI50 with DU-145 prostate was 1.67 µM; with HS 578T breast, 14.1 µM; with MDA-MB-231 breast, 1.52 µM; with NCI-H23 lung, 1.79 µM; in the experiment on OVCAR-5 ovarian, 1.59 µM; with SF-295 CNS, 1.85 µM. Further, in the experiment with T-47D breast, the GI50 was 1.68 µM. The TGI turned out to be 3.03 µM in the experiment with DU-145 prostate; 35.9 µM in the experiment with HS 578T breast; 2.85 µM with MDA-MB-231 breast; 3.47 µM in the experiment with NCI-H23 lung; 2.97 µM in the experiment on OVCAR-5 ovarian; 3.45 µM with SF-295 CNS. In addition, the TGI in the experiment with T-47D breast was found to be 3.45 µM.
Turning to `COc1cc2c3c(n([C@@H]4CCOC4)c(=O)c2cc1OC)-c1cc2c(cc1C3=O)OCO2`, the values for the GI50 in the experiment on DU-145 prostate, in the experiment on HS 578T breast and in the experiment with SF-295 CNS were below 0.01 µM, above 100 µM and below 0.01 µM, respectively. In addition, the TGI in the experiment with DU-145 prostate was above 100 µM; with HS 578T breast it was above 100 µM; in the experiment with SF-295 CNS it was 0.0219 µM.
Regarding `C(=C\c1ccncc1)/c1ccncc1`, the GI50 in the experiment on DU-145 prostate, in the experiment on HCT-116 colon, in the experiment with MDA-MB-231 breast, with NCI-H23 lung, in the experiment with OVCAR-5 ovarian and in the experiment with SF-295 CNS was above 100 µM each time. Also, in the experiment with T-47D breast, the GI50 was above 100 µM. Also, the TGI in the experiment on DU-145 prostate, in the experiment with HCT-116 colon, with MDA-MB-231 breast, in the experiment on NCI-H23 lung, with OVCAR-5 ovarian and with SF-295 CNS was above 100 µM in each case. In the experiment on T-47D breast, this molecule gave a TGI above 100 µM.
